Reference: ChEMBL document CHEMBL3813691, “Quantitative relationships between structure and cytotoxic activity of flavonoid derivatives. An application of Hirshfeld surface derived descriptors” (Bioorg Med Chem Lett, 2016)

Columns and labels:
[1] = Cytotoxicity against human HL60 cells assessed as reduction in cell survival after 46 hrs by MTT assay; assay type: functional, cell-based; details: HL-60, 46 h
[2] = Selectivity ratio of IC50 for HUVEC to IC50 for human HL60 cells; assay type: cell-based, HL-60; details: HUVEC and HL60 cells, read-out: Ratio IC50
HUVEC = assay: Cytotoxicity against HUVEC assessed as reduction in cell survival after 46 hrs by MTT assay; assay type: cell-based; details: Homo sapiens
[3] = Cytotoxicity against human HL60 cells assessed as reduction in cell survival; assay type: functional, cell-based; details: HL-60

Compound `O=C1c2ccccc2OC(c2ccccc2)C12N=NCC2c1ccc([N+](=O)[O-])cc1` (stereo not drawn) has an IC50 [1] of 54.6 µM.
`CN1N=C2c3ccccc3OC(c3ccccc3)C2C1c1ccc(F)cc1` (stereo not drawn) gave an IC50 [1] of 97.7 µM.
`N#Cc1cccc(C2CN=NC23C(=O)c2ccccc2OC3c2ccccc2)c1` (stereo not drawn) gave an IC50 [1] of 75 µM.
`Oc1ccc(C2NN=C3c4ccccc4OC(c4ccccc4)C32)cc1` (stereo not drawn) showed an IC50 [1] of 42 µM.
Compound `Cc1cccc(C2C3C(=NN2C)c2ccccc2OC3c2ccccc2)c1` (stereo not drawn) has an IC50 [1] of 60.5 µM.
Compound `CN1N=C2c3ccccc3OC(c3ccccc3)C2C1c1ccc(Cl)cc1` (stereo not drawn) has a selectivity ratio [2] of 10, an IC50 [1] of 7.4 µM and an IC50 (HUVEC) of 70.9 µM.
With `COc1ccc(C2C3C(=NN2C)c2ccccc2OC3c2ccccc2)cc1` (stereo not drawn) the IC50 [1] was 541 µM.
With `CN1N=C2c3ccccc3OC(c3ccccc3)C2C1c1ccc(O)cc1` (stereo not drawn) the IC50 [1] was 47.7 µM.
With `CN1N=C2c3ccccc3OC(c3ccccc3)C2C1c1cccc(C#N)c1` (stereo not drawn) the IC50 [1] was 65.4 µM.
For `Oc1ccc2c(c1)C1=NNC(c3ccccc3)C1C(c1ccccc1)O2` (stereo not drawn), the IC50 [1] was 27.3 µM.
Work on `O=C1/C(=C/c2ccc(Cl)cc2)C(c2ccccc2)Oc2ccccc21` (stereo not drawn) yielded an IC50 (HUVEC) of 6.9 µM.
`Cc1ccc(C2C3C(=NN2C)c2ccccc2OC3c2ccccc2)cc1` (stereo not drawn) gave an IC50 [1] of 27.8 µM.
Work on `O=C(/C=C/c1ccccc1Cl)c1ccccc1O` yielded an IC50 (HUVEC) of 7.8 µM.
For `CN1N=C2c3ccccc3OC(c3ccccc3)C2C1c1ccccc1` (stereo not drawn), the IC50 [1] was 54.1 µM.
With `COc1cccc(C2C3C(=NN2C)c2ccccc2OC3c2ccccc2)c1` (stereo not drawn) the IC50 [1] was 70.3 µM.
Work on `CN1N=C2c3ccccc3OC(c3ccccc3)C2C1c1ccc(C#N)cc1` (stereo not drawn) yielded an IC50 [1] of 20.1 µM.
Compound `c1ccc(C2Oc3ccccc3C3=NNC(c4ccncc4)C32)cc1` (stereo not drawn) has an IC50 [1] of 49.7 µM.
With `O=C1/C(=C\c2ccccc2)C(c2ccccc2)Oc2ccccc21` (stereo not drawn) the IC50 [1] was 33.3 µM.
`Oc1cccc(C2NN=C3c4ccccc4OC(c4ccccc4)C32)c1` (stereo not drawn) gave an IC50 [1] of 50 µM.
For `CN1N=C2c3ccccc3OC(c3ccccc3)C2C1c1ccc(Br)cc1` (stereo not drawn), the selectivity ratio [2] was 25, the IC50 [1] was 7.5 µM and the IC50 (HUVEC) was 184 µM.
With `COc1cccc(C2CN=NC23C(=O)c2ccccc2OC3c2ccccc2)c1` (stereo not drawn) the IC50 [1] was 74.9 µM.
Compound `COc1cc([C@@H]2c3cc4c(cc3[C@@H](O[C@@H]3O[C@@H]5CO[C@@H](C)O[C@H]5[C@H](O)[C@H]3O)[C@H]3COC(=O)[C@H]23)OCO4)cc(OC)c1O` [ETOPOSIDE] has an IC50 [3] of 0.025 µM.
`CN1N=C2c3ccccc3OC(c3ccccc3)C2C1c1cccc(O)c1` (stereo not drawn) gave an IC50 [1] of 344 µM.
For `CN1N=C2c3cc(O)ccc3OC(c3ccccc3)C2C1c1ccccc1` (stereo not drawn), the IC50 [1] was 37.7 µM.
